The results in this text go back to US4230617A, “Somatostatin analogues” (American Home Products Corporation, priority 1979, dated 1980).

Counter-ions that a name gives are not always drawn. Positions of bridges follow the written chain, without caps; N, C: chain ends. Non-standard residues stand in square brackets, D forms with d. Residues, ends and D or L forms follow the SMILES beside them.

Common to all, as to format: in vivo, albino male rats
The subject of assay [1] is insulin. The assay can be described thus: Arginine-stimulated insulin release in Nembutal-anesthetized rats, blood radioimmunoassay. The settings on record: rat. On the procedure:
(§1) The in vivo activity of the polypeptides of this invention was established by subjecting the product of Examples 2 and 3 as representative compounds of the invention, to the following standard test procedure: Two groups of ten albino male rats were arranged to provide a control group and a group for study of the compounds of this invention. Nembutal (50 mg/kg) was injected intraperitoneally into each rat. Fifteen minutes late a subcutaneous injection of the test compound or physiological saline (control) was administered separately to each of the two groups of rats. Ten minutes later 0.5 milliliters of arginine (300 mg/ml., pH 7.2) was injected into the rats heart. The rats were decapitated five minutes later and their blood was collected in Trasylol-EDTA. Aliquot samples were radioimmunoassayed for growth hormone, insulin and glucagon.

Assay [2] relates to growth hormone. The assay can be described thus: Duration test: same procedure with 2 and 4 hour period before blood sampling, growth hormone radioimmunoassay. The settings on record: rat, 1,000 ug/kg. On the procedure:
as §1, with “glucagon. The results of these tests are presented below:” for “glucagon.”
The procedure described in the preceding paragraph was repeated with the exception that a 2 and 4 hour period was allowed to elapse before blood sampling.

The subject of assay [3] is glucagon. In words: Arginine-stimulated glucagon release in Nembutal-anesthetized rats, blood radioimmunoassay. Conditions: rat. On the procedure:
as §1

For assay [4], the system named is growth hormone. In words: Arginine-stimulated growth hormone release in Nembutal-anesthetized rats, blood radioimmunoassay. The settings on record: rat, * p < 0.01. How it is done:
as §1

Where [5] appears, read: 2 hours before blood sampling, * p < 0.01.
[6] abbreviates: 4 hours before blood sampling, + p < 0.05.
[7] abbreviates: summary statement, for periods up to about four hours.

Consider `C[C@@H](O)[C@@H]1NC(=O)[C@H](Cc2ccccc2)NC(=O)[C@H]([C@@H](C)O)NC(=O)[C@H](CCCCN)NC(=O)[C@@H](Cc2c[nH]c3ccccc23)NC(=O)[C@H](Cc2c[nH]cn2)NC(=O)[C@H](Cc2ccccc2)NC(=O)[C@H](Cc2c[nH]cn2)NC(=O)[C@H](CCCNC(=N)N)NC(=O)[C@@H](N)CSSC[C@@H](C(=O)O)NC(=O)[C@H](CO)NC1=O` [Example 3, L-Cysteinyl-L-arginyl-L-histidyl-L-phenylalanyl-L-histidyl-D-tryptophyl-L-lysyl-L-threonyl-L-phenylalanyl-L-threonyl-L-seryl-L-cysteine cyclic (1-12) disulfide tetraacetate salt] (H-CRHFH[dW]KTFTSC-OH; disulfide 1-12), for which the INS in assay [1] (100 μg/kg subcutaneous, control 268 ± 21) amounted to 282 ± 48 μU/ml. Also, the GH stood at 181 ± 59 ng/mL in assay [2] (setting [5]); 129 ± 29 ng/mL in assay [2] (setting [6]); 48 ± 20 ng/mL in assay [4] (100 μg/kg subcutaneous, control 201 ± 40). The compound also yielded a GLUN in assay [3] (100 μg/kg subcutaneous, control 89 ± 14) of 72 ± 13 pg/mL.

On to `C[C@@H](O)[C@@H]1NC(=O)[C@H](Cc2ccccc2)NC(=O)[C@H]([C@@H](C)O)NC(=O)[C@H](CCCCN)NC(=O)[C@@H](Cc2c[nH]c3ccccc23)NC(=O)[C@H](Cc2c[nH]c3ccccc23)NC(=O)[C@H](Cc2ccccc2)NC(=O)[C@H](Cc2c[nH]cn2)NC(=O)[C@H](CCCNC(=N)N)NC(=O)[C@@H](N)CSSC[C@@H](C(=O)O)NC(=O)[C@H](CO)NC1=O` [Example 2, L-Cysteinyl-L-arginyl-L-histidyl-L-phenylalanyl-L-tryptophyl-D-tryptophyl-L-lysyl-L-threonyl-L-phenylalanyl-L-threonyl-L-seryl-L-cysteine cyclic (1-12) disulfide tetraacetate salt] (H-CRHFW[dW]KTFTSC-OH; disulfide 1-12), for which the INS was 61 ± 4 μU/ml in assay [1] (50 μg/kg subcutaneous, control 137 ± 25) and 149 ± 23 μU/ml in assay [1] (200 μg/kg subcutaneous, control 238 ± 23, + p < 0.05). Further, the “insulin release (result in words)” value in assay [1] (setting [7]) is “suppress”. Also, the GH in assay [2] (setting [5]) came to 51 ± 9 ng/mL; in assay [2] (setting [6]), 60 ± 11 ng/mL; in assay [4] (50 μg/kg subcutaneous, control 379 ± 50), 104 ± 8 ng/mL; in assay [4] (200 μg/kg subcutaneous, control 202 ± 11) it was 92 ± 8 ng/mL. Besides, the GLUN in assay [3] (50 μg/kg subcutaneous, control 119 ± 8, * p < 0.01) was determined as 36 ± 8 pg/mL; in assay [3] (200 μg/kg subcutaneous, control 85 ± 6, * p < 0.01), 20 ± 4 pg/mL. In addition, the “glucagon release (result in words)” value in assay [3] (setting [7]) was “suppress”.
